Results as given in patent publication US20140161720A1, “TREATMENT OF ANGIOGENIC- OR VASCULAR-ASSOCIATED DISEASES” (THE GENERAL HOSPITAL CORPORATION, priority 2011, published 2014).
Entries after “also recorded” stand apart in the source; their conditions may differ.

Assays:
[1] = test system: orthotopic 4T1 mammary tumors; test: Vascular parameters in tumors by intravital multiphoton microscopy; format: in vivo, female SCID mice; settings: 37.5 mg/kg daily i.p.
Method: Female SCID mice bearing orthotopic GFP-labeled 3 mm 4T1 mammary tumors were treated with five daily i.p. injections (day 0-day 4) of 37.5 mg/kg DAL or saline. Implanted mammary fat pad windows (35) were surgically implanted to facilitate intravital imaging through multiphoton microscopy with a custom-built multiphoton microscope with a 20×0.95NA objective (Olympus), and mice were imaged by fluorescent angiography following retro-orbital injection of 60 uL of 10 mg/mL TAMRA-dextran (2MDa molecular mass). Images were collected on day 0, day 2, and day 4, with the first images collected immediately before the first treatment. The 2×2 grids were imaged in the sample plane (630-μm) field of view at each position) tissue from 0-200 μm depth. To measure vascular parameters in the mice over the course of treatment, a custom 3D vascular tracing and analysis software package based on MATLAB (The Mathworks) was applied to the images.
To study these effects quantitatively, fluorescent angiographies were conducted in female SCID mice bearing orthotopic 4T1 mammary tumors in mammary fat pad windows via intravital multiphoton microscopy (FIG. 3A) (22-24). These mice were treated with 37.5 mg/kg DAL or saline daily for 5 days by i.p. injection. It was determined that DAL treatment decreases tumor vascular volume fractions—a measure of vascular density—compared with saline treatment (FIG. 3B, p<0.002, day 4).

Rac1 = biological target: T1, Rac1 (Homo sapiens, UniProt P63000); test: Rac1 activation pull-down assay (PAK-PBD) in HUVECs; format: cell-based; settings: various concentrations 30 minutes, VEGF stimulated
T1 construct: endogenous in cells; host or cells: HUVEC
Method: Rac1 and cdc42 activities were measured with a Rac1 (BK035) activation assay biochem kit (Cytoskeleton) according to the manufacturer protocol. In brief, human umbilical vein endothelial cells (HUVECs) were bovine brain extract-starved for 12 hours in 1% FBS-EGM (Lonza) and pretreated with various concentrations of DAL for 30 minutes at 37° C. The HUVECs were then stimulated with VEGF at […] for 15 minutes at 37° C. After stimulation, the cells were immediately incubated on ice, washed twice with PBS, and lysed with lysis buffer. The lysates were pre-cleared and added with 15 μl of PAK-PBD beads for pull-down of activated Rac1 or cdc42. After rocking at 4° C. for 1 hour, the beads were washed once and boiled at 100° C. for 2 minutes. The protein lysates were then resolved in a 8-16% gradient gel (Invitrogen) and transferred to a PVDF membrane. Primary antibodies (anti-Rac1, 1:1000, cytoskeleton or anti-cdc42, 1:1000, cell signaling) were added to bind to the protein overnight at 4° C., followed by incubation with HRP-conjugated secondary antibodies. Protein activity was measured by the standard ECL method (Amersham).
Without wishing to be bound by theory, DAL brings about its antivascular effects by destabilizing cell adhesion through the actin cytoskeleton. […] Therefore, potential targets of DAL in signaling pathways involved in actin remodeling were evaluated. […]

MDA-MB-231 cells = test: High-throughput cell adhesion screen (cells remaining attached); format: cell-based, human; settings: FIG. 1C
Method: A cell-based readout system was used for compound selection. For the cell-based screening, an optimal cell density of 10,000 breast cancer MDA-MB-231 cells/well was selected to produce the most prominent signal. The plated cells were incubated with each library compound, washed with PBS, and the Cell Titer-Glo (Promega) reagent was used to detect the number of cells remaining attached in each well. This ATP-based detection has a linear relationship between the luminescent signal and the number of cells per well. Of the 50,000 compounds screened, 86 library compounds (0.172% of screened compounds) were selected at 1.67 μM concentration for the second screening step. […] As a further test of toxicity, DAL was injected intraperitoneally at 100 mg/kg in SCID mice and signs of toxicity including cachexia, ruffled fur, diarrhea, anorexia, skin ulceration, and toxic death were monitored.
A screening strategy was developed to identify potential agents that target adhesion of endothelial cells or cancer cells to their substrate. […] The initial screening step quantified the number of cells remaining attached to their wells following incubation with each compound and subsequent washing steps. […] The agents that affect cell adhesion can be monitored through remodeling of actin filaments. […] Changes in actin assembly and cell shape after treatment with 12 compounds were determined. […]

How did the “total tumor vascular length (normalized to tumor volume)” value ([1]; day 2 and day 4, versus saline) turn out when CC1(C)C=CC2=C(O1)C(=O)c1ccccc1C2=O [DAL, dehydro-alpha-lapachone] was run?
Its value is “lower”.

What about the “tumor vascular volume fraction” value ([1]; day 4, versus saline) of the same compound?
Its value is “decreases; also recorded: lower”.

What about the “mean tumor vascular diameter” value ([1]; versus saline) of the same compound?
Its value is “remains the same; also recorded: no significant difference”.

And the Rac1 activity (Rac1)?
The Rac1 activity was “decreased Rac1 activity in a concentration-dependent manner”.

What about the cell adhesion properties (MDA-MB-231 cells) of the same compound?
Its cell adhesion properties is “lost their adhesion properties”.
